From patent publication US10519506B2, “Identification of metastasis-specific miRNA and hypomethylation signatures in human colorectal cancer” (Baylor Research Institute, priority 2011, dated 2019)

Legend:
Type in all cases: cell-based, human
CRC cell lines [1] = test: miRNA expression (TaqMan miRNA assays) in CRC cell lines treated with RNA pol II inhibitor; details: 50 μg/ml α-amanitin for 7 hours (FIG. 9)
Experimental: (§1) Additional materials and methods. CRC Cell line: CACO2, HCT116, RKO, SW48, SW480, and SW620. Tissue specimens: A total of 59 formalin-fixed, paraffin-embedded (FFPE) primary CRC tissues and corresponding liver metastasis tissues were analyzed. 5-Aza-2′-deoxycytidine (5-aza-dC) treatment: CRC cell lines were treated with 2.5 μM 5-aza-dC for 72 hours. α-amanitin treatment: CRC cell lines were treated with 50 μg/ml α-amanitin, a RNA pol II inhibitor, for 7 hours. Methylation analysis: Methylation levels were analyzed by bisulfite pyrosequencing for quantitative methylation analysis using PSQ HS 96A pyrosequencing system (Qiagen) on bisulfite modified genomic DNA template. microRNAs expression analysis: Expression of miR-373 and miR-520c was analyzed using TaqMan miRNA assays.

CRC cell lines [2] = test: Alu methylation by quantitative bisulfite pyrosequencing in CRC cell lines treated with demethylating agent; details: for methylation status of global Alu repetitive element: 2.5 μM 5-aza-dC for 72 hours, pyrosequencing (FIG. 3)
Experimental: (§2) Cell lines and 5-aza-2-deoxy-cytidine treatment. Seven CRC cell lines, HCT116, RKO, SW48, Caco-2, HT29, SW480, and SW620 were obtained from the American Type Culture Collection (ATCC, Rockville, Md.). Cell lines were treated with 2.5 μM 5-Aza-2′-deoxycytidine (5-aza-dC; Sigma-Aldrich) for 72 hours, and fresh medium containing 5-aza-dC was replaced every 24 hours.
DNA methylation analysis. Methylation levels of repetitive sequences (global Alu and local Alu) were analyzed by quantitative bisulfite pyrosequencing using the PSQ HS 96A pyrosequencing system (Qiagen) following bisulfite modification of genomic DNA using EZ DNA methylation Gold Kits (Zymo Research), as described previously.
as §1

CRC cell lines [3] = test: miRNA expression (TaqMan miRNA assays) in CRC cell lines treated with demethylating agent
Experimental: as §2
miRNA expression analysis. Expression of fourteen metastasis-related miRNAs (let-7i, miR-10b, miR-30b, miR-34a, miR-141, miR-200b, miR-200c, miR-203, miR-221, miR-320a, miR-373, miR-429, miR-518d, and miR-520c) was analyzed using TaqMan miRNA assays (Applied Biosystems Inc., Foster City, Calif.). Expression of RNU6B (Applied Biosystems Inc., Foster City, Calif.) and miR-16 were used as endogenous controls for cell lines and FFPE tissues, respectively.
as §1, with “5-Aza-2′-deoxycytidine (5-aza-dC) treatment: CRC cell lines were treated with 2.5 μM 5-aza-dC for 72 hours. α-amanitin treatment: CRC cell lines were treated with 50 μg/ml α-amanitin, a RNA pol II inhibitor, for 7 hours.” left out

| Compound | expression of miR-520c (CRC cell lines [1]) | miR-373 transcription / activation (CRC cell lines [1]) | miR-373 transcription / activation (CRC cell lines [1]; listed as RNA polymerase II inhibitor) | methylation status of global Alu repetitive element (CRC cell lines [2]) | methylation status of global Alu repetitive element (CRC cell lines [2]; listed as 5-azacytidine) | methylation of Alu element in miR-373 promoter region (CRC cell lines [2]; 5Aza treatment) | expression of miR-373 (CRC cell lines [3]; demethylating agent treatment) | expression of miR-520c (CRC cell lines [3]; demethylating agent treatment (FIG. 6B)) |
| --- | --- | --- | --- | --- | --- | --- | --- | --- |
| CC[C@H](C)[C@@H]1NC(=O)CNC(=O)[C@@H]2Cc3c([nH]c4cc(O)ccc34)[S+]([O-])C[C@@H](NC(=O)CNC1=O)C(=O)N[C@@H](CC(N)=O)C(=O)N1C[C@H](O)C[C@H]1C(=O)N[C@@H]([C@@H](C)[C@@H](O)CO)C(=O)N2 (stereo in doubt) [RNA pol II inhibitor, α-amanitin] | inhibited the expression | did not suppress activation | did not suppress |  |  |  |  |  |
| Nc1ncn([C@H]2C[C@H](O)[C@@H](CO)O2)c(=O)n1 [5-aza, 5-Aza-2′-deoxycytidine] |  |  |  | markedly demethylated | Global hypomethylation of Alu sequences was observed | demethylated | induced | induced |
